According to patent publication US20090068290A1, “BIFEPRUNOX DOSES FOR TREATING SCHIZOPHRENIA” (priority 2006, published 2009):

Columns and labels:
[1] = Body weight, Clinical Study Two; type: in vivo, human
[2] = tested on: adult subjects with schizophrenia; experiment: Calgary Depression Scale for Schizophrenia (CDSS), Clinical Study Three; type: in vivo, human; settings: for CDSS Total Score, Trt Effect / Change from Baseline in CDSS Total Score, Mean (SD) / Change from Baseline in CDSS Total Score, Median / mean change (SD) from Baseline to Endpoint in CDSS score: LOCF; for CDSS score, treatment effect (bifeprunox, placebo): Endpoint LOCF; for mean change (SD) from Baseline to Endpoint in CDSS score: ITT
Source text: SECONDARY OBJECTIVES To assess the efficacy of bifeprunox in treating schizophrenia using the Positive Symptom sub-scale score of the PANSS, the Negative Symptom sub-scale score of the PANSS, the General Psychopathology sub-scale of the PANSS, Brief Psychiatric Rating Scale (BPRS) total score derived from the PANSS, BPRS psychosis score derived from the PANSS, the Clinical Global Impression Severity of Illness score (CGI-S), the Clinical Global Impression Improvement score (CGI-I), CGI-I responder rate, PANSS responder rate based on the PANSS total score, Calgary Depression Scale for Schizophrenia (CDSS), and Subject Satisfaction rating.
There were four treatment arms in this study, approximately 144 subjects per arm. […] After completing the Single-Blind Placebo Lead-in Period of at least three days, bifeprunox-treated subjects were titrated from 0.25 mg up to 20 mg/day or 30 mg/day according to a standardized titration scheme over a seven- or eight-day period, respectively. When the assigned dose was reached, subjects were maintained at that dose for the remainder of the six week treatment period. […] Subjects were hospitalized (if not already inpatients) after eligibility for study entry was verified, starting from the Screening Visit until at least 10 days after Baseline. Subjects could be hospitalized longer than 10 days if considered medically necessary by the Investigator. Rating scale assessments for efficacy and abnormal movement disorders were done weekly except for Week 5. […] Subject satisfaction with study medication was assessed at Week 6.

[3] = Body weight, Clinical Study Three
Source text: To assess the safety and tolerability of bifeprunox using physical examination, weight, waist circumference, vital signs (pulse rate and systolic/diastolic blood pressure [BP], and oral temperature), 12-lead electrocardiogram (ECG), clinical laboratory assessments (hematology, biochemistry including fasting insulin level, fasting glucose, fasting lipid profile, urinalysis, special laboratory assessments for prolactin, IGF-1, IGFBP-3, and thyroid function), need for anticholinergic treatment during double-blind treatment period, concomitant medication use, adverse event (AE) monitoring, and assessments of abnormal movement including the Simpson-Angus Scale (SAS), Barnes Akathisia Scale (BAS), and Abnormal Involuntary Movement Scale (AIMS).

SMILES: O=c1[nH]c2cccc(N3CCN(Cc4cccc(-c5ccccc5)c4)CC3)c2o1 [Bifeprunox, 7-[4-([1,1′-biphenyl]-3-ylmethyl)-1-piperazinyl]-2(3H)-benzoxazolone]
- Weight, Baseline Mean of subjects with Week 6 change ([1]; Bifeprunox 30 mg): 166.1 lbs
- Weight, Baseline, Max ([1]; Bifeprunox 30 mg): 360 lbs
- Weight, Baseline, Mean (SD) ([1]; Bifeprunox 30 mg): 169.2 (55.3) lbs
- Weight, Baseline, Median ([1]; Bifeprunox 30 mg): 161 lbs
- Weight, Baseline, Min ([1]; Bifeprunox 30 mg): 84 lbs
- Weight, Change from Baseline at Endpoint, Max ([1]; Bifeprunox 30 mg): 9 lbs
- Weight, Change from Baseline at Endpoint, Mean (SD) ([1]; Bifeprunox 30 mg): −2.2 (6.7) lbs
- Weight, Change from Baseline at Endpoint, Median ([1]; Bifeprunox 30 mg): 0 lbs
- Weight, Change from Baseline at Endpoint, Min ([1]; Bifeprunox 30 mg): −32 lbs
- Weight, Change from Baseline at Week 6, Max ([1]; Bifeprunox 30 mg): 8 lbs
- Weight, Change from Baseline at Week 6, Mean (SD) ([1]; Bifeprunox 30 mg): −4.3 (8.2) lbs
- Weight, Change from Baseline at Week 6, Median ([1]; Bifeprunox 30 mg): −2 lbs
- Weight, Change from Baseline at Week 6, Min ([1]; Bifeprunox 30 mg): −32 lbs
- mean weight change at Endpoint ([1]; Bifeprunox 30 mg): −2.2 lbs
- Weight, Baseline Mean of subjects with Endpoint change ([1]; Bifeprunox 40 mg): 160.7 lbs
- Weight, Baseline Mean of subjects with Week 6 change ([1]; Bifeprunox 40 mg): 162.0 lbs
- Weight, Baseline, Max ([1]; Bifeprunox 40 mg): 378 lbs
- Weight, Baseline, Mean (SD) ([1]; Bifeprunox 40 mg): 161.9 (46.6) lbs
- Weight, Baseline, Median ([1]; Bifeprunox 40 mg): 155 lbs
- Weight, Baseline, Min ([1]; Bifeprunox 40 mg): 84 lbs
- Weight, Change from Baseline at Endpoint, Max ([1]; Bifeprunox 40 mg): 15 lbs
- Weight, Change from Baseline at Endpoint, Mean (SD) ([1]; Bifeprunox 40 mg): −1.9 (5.8) lbs
- Weight, Change from Baseline at Endpoint, Median ([1]; Bifeprunox 40 mg): −1 lbs
- Weight, Change from Baseline at Endpoint, Min ([1]; Bifeprunox 40 mg): −18 lbs
- Weight, Change from Baseline at Week 6, Max ([1]; Bifeprunox 40 mg): 10 lbs
- Weight, Change from Baseline at Week 6, Mean (SD) ([1]; Bifeprunox 40 mg): −3.1 (5.8) lbs
- Weight, Change from Baseline at Week 6, Median ([1]; Bifeprunox 40 mg): −2 lbs
- body weight (in words) ([1]; bifeprunox 30, 40 mg, 6 weeks): Small comparable decreases in body weight
- CDSS Total Score, Trt Effect ([2]; 20 mg versus placebo, Week 6, Endpoint): −0.54
- Change from Baseline in CDSS Total Score, Mean (SD) ([2]; 20 mg, Week 1): −0.86 (2.87)
- Change from Baseline in CDSS Total Score, Median ([2]; 20 mg, Week 1): 0.0
- Change from Baseline in CDSS Total Score, Mean (SD) ([2]; 20 mg, Week 2): −1.19 (3.30)
- Change from Baseline in CDSS Total Score, Median ([2]; 20 mg, Week 2): −1.0
- Change from Baseline in CDSS Total Score, Mean (SD) ([2]; 20 mg, Week 3): −1.41 (3.72)
- Change from Baseline in CDSS Total Score, Median ([2]; 20 mg, Week 3): −1.0
- Change from Baseline in CDSS Total Score, Mean (SD) ([2]; 20 mg, Week 4): −1.35 (3.66)
- Change from Baseline in CDSS Total Score, Median ([2]; 20 mg, Week 4): −1.0
- Change from Baseline in CDSS Total Score, Mean (SD) ([2]; 20 mg, Week 6, Endpoint): −1.30 (3.85)
- Change from Baseline in CDSS Total Score, Median ([2]; 20 mg, Week 6, Endpoint): 0.0
- CDSS Total Score, Trt Effect ([2]; 30 mg versus placebo, Week 6, Endpoint): −0.34
- Change from Baseline in CDSS Total Score, Mean (SD) ([2]; 30 mg, Week 1): −0.77 (2.63)
- Change from Baseline in CDSS Total Score, Median ([2]; 30 mg, Week 1): 0.0
- Change from Baseline in CDSS Total Score, Mean (SD) ([2]; 30 mg, Week 2): −0.69 (2.97)
- Change from Baseline in CDSS Total Score, Median ([2]; 30 mg, Week 2): 0.0
- Change from Baseline in CDSS Total Score, Mean (SD) ([2]; 30 mg, Week 3): −0.60 (3.10)
- Change from Baseline in CDSS Total Score, Median ([2]; 30 mg, Week 3): 0.0
- Change from Baseline in CDSS Total Score, Mean (SD) ([2]; 30 mg, Week 4): −0.65 (3.07)
- Change from Baseline in CDSS Total Score, Median ([2]; 30 mg, Week 4): 0.0
- Change from Baseline in CDSS Total Score, Mean (SD) ([2]; 30 mg, Week 6, Endpoint): −0.79 (3.02)
- Change from Baseline in CDSS Total Score, Median ([2]; 30 mg, Week 6, Endpoint): −1.0
- CDSS score, treatment effect (bifeprunox, placebo) ([2]; bifeprunox 20 mg (first mention)): −0.54
- mean change (SD) from Baseline to Endpoint in CDSS score ([2]; bifeprunox 20 mg): −1.30 (3.85)
- mean change (SD) from Baseline to Endpoint in CDSS score ([2]; bifeprunox 30 mg): −0.79 (3.02)
- CDSS score, treatment effect (bifeprunox, placebo) ([2]; bifeprunox): −0.34
- Weight, Baseline Mean of subjects with Endpoint change ([3]; Bifeprunox 30 mg): 179.7 lbs
- Weight, Baseline Mean of subjects with Week 6 change ([3]; Bifeprunox 30 mg): 172.6 lbs
- Weight, Baseline, Max ([3]; Bifeprunox 30 mg): 358 lbs
- Weight, Baseline, Mean (SD) ([3]; Bifeprunox 30 mg): 179.1 (62.4) lbs
- Weight, Baseline, Median ([3]; Bifeprunox 30 mg): 171 lbs
- Weight, Baseline, Min ([3]; Bifeprunox 30 mg): 77 lbs
- Weight, Change from Baseline at Endpoint, Max ([3]; Bifeprunox 30 mg): 39 lbs
- Weight, Change from Baseline at Endpoint, Mean (SD) ([3]; Bifeprunox 30 mg): −1.1 (7.4) lbs
- Weight, Change from Baseline at Endpoint, Median ([3]; Bifeprunox 30 mg): 0 lbs
- Weight, Change from Baseline at Endpoint, Min ([3]; Bifeprunox 30 mg): −22 lbs
- Weight, Change from Baseline at Week 6, Max ([3]; Bifeprunox 30 mg): 39 lbs
- Weight, Change from Baseline at Week 6, Mean (SD) ([3]; Bifeprunox 30 mg): −1.0 (8.9) lbs
- Weight, Change from Baseline at Week 6, Median ([3]; Bifeprunox 30 mg): −2 lbs
- Weight, Change from Baseline at Week 6, Min ([3]; Bifeprunox 30 mg): −18 lbs
- incidence of markedly abnormal (≧7%) decrease in body weight ([3]; Bifeprunox 30 mg): 5%
- incidence of markedly abnormal (≧7%) increase in body weight ([3]; Bifeprunox 30 mg): 5%
- mean weight change at Endpoint ([3]; Bifeprunox 30 mg): −1.1 lbs
- Weight, Baseline Mean of subjects with Endpoint change ([3]; bifeprunox 20 mg): 178.8 lbs
- Weight, Baseline Mean of subjects with Week 6 change ([3]; bifeprunox 20 mg): 171.9 lbs
- Weight, Baseline, Max ([3]; bifeprunox 20 mg): 393 lbs
- Weight, Baseline, Mean (SD) ([3]; bifeprunox 20 mg): 180.6 (61.7) lbs
- Weight, Baseline, Median ([3]; bifeprunox 20 mg): 176 lbs
- Weight, Baseline, Min ([3]; bifeprunox 20 mg): 77 lbs
- Weight, Change from Baseline at Endpoint, Max ([3]; bifeprunox 20 mg): 26 lbs
- Weight, Change from Baseline at Endpoint, Mean (SD) ([3]; bifeprunox 20 mg): −2.3 (7.3) lbs
- Weight, Change from Baseline at Endpoint, Median ([3]; bifeprunox 20 mg): −1 lbs
- Weight, Change from Baseline at Endpoint, Min ([3]; bifeprunox 20 mg): −34 lbs
- Weight, Change from Baseline at Week 6, Max ([3]; bifeprunox 20 mg): 26 lbs
- Weight, Change from Baseline at Week 6, Mean (SD) ([3]; bifeprunox 20 mg): −3.3 (8.2) lbs
- Weight, Change from Baseline at Week 6, Median ([3]; bifeprunox 20 mg): −1 lbs
- Weight, Change from Baseline at Week 6, Min ([3]; bifeprunox 20 mg): −34 lbs
- incidence of markedly abnormal (≧7%) decrease in body weight ([3]; bifeprunox 20 mg): 6%
- incidence of markedly abnormal (≧7%) increase in body weight ([3]; bifeprunox 20 mg): 1%
- mean weight change at Endpoint ([3]; bifeprunox 20 mg): −2.3 lbs
- mean body weight (in words) ([3]; bifeprunox 20, 30 mg, 6 weeks): Small decreases in mean body weight
